{"source": "patent US20020162794A1", "about": "“Anaerobic digestion” (priority 2001, published 2002)", "key": {"[1]": {"test_system": "mixed culture from municipal sludge digester", "test": "Total Solids (TS) of batch anaerobic digester reactors", "procedure": "A 30 ml samples is withdrawn from each of the 12 reactors into refractory pans after the weight of empty pans was recorded (say W1). […] The weight of pans with dried sample is then noted (say W2). The difference W2˜W1, gives the weight of solids in 30 ml sample. From this the total Solids concentration in units of g/liter is calculated. This TS parameter is indicative of concentration of total solids in the sample including organic substrate, inert organics and inorganics.\n(§1) Municipal sludge from the city of Lubbock, Wastewater Treatment Plant was digested in 12 batch digesters. Using twelve batch reactors allowed the collection of control reactors data (i.e., no formate in the reactors) in triplicate, titration studies of increasing formate concentration, and duplicates/triplicates of varying formate concentration. Experiments were conducted in the laboratories of Texas Tech University.\n(§2) The reactors were setup on Mar. […] The substrate taken was 2 parts of 50 g/liter sucrose solution mixed with 1 part of digested municipal sludge which acts as the seed material for incorporation of microbes into the reactors. The experiments were started with the following protocol. [drawing 1]"}, "[2]": {"test_system": "mixed culture from municipal sludge digester", "test": "Volume and composition of gas generated in batch anaerobic digesters", "source_text": "Volumetric gas production measurements\nThe gases generated by the biological activity within the reactors were collected in the overhanging plastic bags. The bags are connected to a tank containing colored water via a gas port used for sampling purpose to determine the gas composition. To measure the volume of gas in the bag, the water in the tank is drained out maintaining a suction pressure head difference of 2 cm between the atmospheric air and the gas inside the tank. The water is drained until there is a jump in the pressure head differences, which is actually noted by observing a jump in the difference in levels of manometer limbs. […] The difference between final water level and initial water level is measured by the scale on the side of the tank and is indicative of the volume of gas collected in each of the bags. The gas is returned to the bags by pumping the drained water back into the water tank, whereby the collected gas inside the water tank is pushed back into the overhanging plastic bags.\nGas composition measurements\nTo analyze the composition of the gases collected, a small sample of gas was withdrawn through a gas port and then sent out for analysis by a commercial laboratory utilizing gas chromatography.\nas §1, §2"}, "[3]": {"test_system": "mixed culture from a publicly owned anaerobic digester", "test": "Identification of predominant colony types in the mixed culture", "assay_type": "cell-based"}, "[4]": {"details": "100000 ppm, average of reactors"}}, "note": "Values joined by “and” are separate entries in the source; they are usually repeats but may differ in a detail not shown here. Equal entries are not always repeated."}
{"smiles": "O=C[O-].[Na+]", "note": "[sodium formate]", "values": [{"measurement": "Total Solids", "setting": "[1]; 1000 ppm, day 2", "result": "37.6 g/L and 35.9 g/L"}, {"measurement": "Total Solids", "setting": "[1]; 1000 ppm, day 7", "result": "33.8 g/L and 32.5 g/L and 32.2 g/L"}, {"measurement": "Total Solids", "setting": "[1]; 1000 ppm, day 16", "result": "20.3 g/L and 15.8 g/L and 21.4 g/L"}, {"measurement": "Total Solids", "setting": "[1]; 1000 ppm, day 55", "result": "15.6 g/L and 13.2 g/L and 17.3 g/L"}, {"measurement": "Total Solids", "setting": "[1]; 1000 ppm, day 243 (so in the source)", "result": "16.6 g/L and 13.0 g/L and 17.8 g/L"}, {"measurement": "Total Solids", "setting": "[1]; 1000 ppm, formate addition at t = 0", "result": "42.3 g/L and 41.8 g/L and 40.8 g/L"}, {"measurement": "Total Solids", "setting": "[1]; 5000 ppm, day 2", "result": 35.5, "unit": "g/L"}, {"measurement": "Total Solids", "setting": "[1]; 5000 ppm, day 7", "result": 34.6, "unit": "g/L"}, {"measurement": "Total Solids", "setting": "[1]; 5000 ppm, day 16", "result": 20.7, "unit": "g/L"}, {"measurement": "Total Solids", "setting": "[1]; 5000 ppm, day 55", "result": 23.2, "unit": "g/L"}, {"measurement": "Total Solids", "setting": "[1]; 5000 ppm, day 243 (so in the source)", "result": 22.0, "unit": "g/L"}, {"measurement": "Total Solids", "setting": "[1]; 5000 ppm, formate addition at t = 0", "result": 47.5, "unit": "g/L"}, {"measurement": "Total Solids", "setting": "[1]; 10000 ppm, day 2", "result": "44.5 g/L and 52.6 g/L and 48.3 g/L"}, {"measurement": "Total Solids", "setting": "[1]; 10000 ppm, day 7", "result": "36.3 g/L and 45.3 g/L and 43.5 g/L"}, {"measurement": "Total Solids", "setting": "[1]; 10000 ppm, day 16", "result": "34.6 g/L and 41.2 g/L and 31.2 g/L"}, {"measurement": "Total Solids", "setting": "[1]; 10000 ppm, day 55", "result": "36.3 g/L and 36.8 g/L and 33.3 g/L"}, {"measurement": "Total Solids", "setting": "[1]; 10000 ppm, day 243 (so in the source)", "result": "33.4 g/L and 39.6 g/L and 30.7 g/L"}, {"measurement": "Total Solids", "setting": "[1]; 10000 ppm, formate addition at t = 0", "result": "55.1 g/L and 54.9 g/L and 53.4 g/L"}, {"measurement": "Total Solids", "setting": "[1]; 100000 ppm, day 2", "result": "254 g/L and 289.6 g/L"}, {"measurement": "Total Solids", "setting": "[1]; 100000 ppm, day 7", "result": "91.5 g/L and 147.4 g/L"}, {"measurement": "Total Solids", "setting": "[1]; 100000 ppm, day 16", "result": "129 g/L and 151.1 g/L"}, {"measurement": "Total Solids", "setting": "[1]; 100000 ppm, day 55", "result": "128 g/L and 160 g/L"}, {"measurement": "Total Solids", "setting": "[1]; 100000 ppm, day 243 (so in the source)", "result": "125 g/L and 147.8 g/L"}, {"measurement": "Total Solids", "setting": "[1]; 100000 ppm, formate addition at t = 0", "result": "180.4 g/L and 188 g/L"}, {"measurement": "Average Composition CH4", "setting": "[2]; 1000 ppm, average of reactors", "result": 0, "unit": "%"}, {"measurement": "Average Composition CO2", "setting": "[2]; 1000 ppm, average of reactors", "result": 18.3, "unit": "%"}, {"measurement": "Average Composition N2", "setting": "[2]; 1000 ppm, average of reactors", "result": 71.7, "unit": "%"}, {"measurement": "Composition CH4", "setting": "[2]; 1000 ppm, single reactors", "result": 0, "unit": "%"}, {"measurement": "Composition CO2", "setting": "[2]; 1000 ppm, single reactors", "result": "40% and 20% and 25%"}, {"measurement": "Composition N2", "setting": "[2]; 1000 ppm, single reactors", "result": "60% and 80% and 75%"}, {"measurement": "Average Composition CH4", "setting": "[2]; 5000 ppm", "result": 0.1, "unit": "%"}, {"measurement": "Average Composition CO2", "setting": "[2]; 5000 ppm", "result": 41, "unit": "%"}, {"measurement": "Average Composition N2", "setting": "[2]; 5000 ppm", "result": 59, "unit": "%"}, {"measurement": "Composition CH4", "setting": "[2]; 5000 ppm, reactor 3", "result": 0.1, "unit": "%"}, {"measurement": "Composition CO2", "setting": "[2]; 5000 ppm, reactor 3", "result": 41, "unit": "%"}, {"measurement": "Composition N2", "setting": "[2]; 5000 ppm, reactor 3", "result": 59, "unit": "%"}, {"measurement": "Volume of CO2 generated", "setting": "[2]; 5000 ppm, reactor 3", "result": 725, "unit": "mL"}, {"measurement": "Volume of gas", "setting": "[2]; 5000 ppm, reactor 3", "result": 1750, "unit": "mL"}, {"measurement": "Average Composition CH4", "setting": "[2]; 10000 ppm, average of reactors", "result": 0, "unit": "%"}, {"measurement": "Average Composition CO2", "setting": "[2]; 10000 ppm, average of reactors", "result": 41.7, "unit": "%"}, {"measurement": "Average Composition N2", "setting": "[2]; 10000 ppm, average of reactors", "result": 58.3, "unit": "%"}, {"measurement": "Composition CH4", "setting": "[2]; 10000 ppm, single reactors", "result": 0, "unit": "%"}, {"measurement": "Composition CO2", "setting": "[2]; 10000 ppm, single reactors", "result": "57% and 43% and 40%"}, {"measurement": "Composition N2", "setting": "[2]; 10000 ppm, single reactors", "result": "43% and 57% and 60%"}, {"measurement": "Average Composition CH4", "setting": "[2]; [4]", "result": 0, "unit": "%"}, {"measurement": "Average Composition CO2", "setting": "[2]; [4]", "result": 59, "unit": "%"}, {"measurement": "Average Composition N2", "setting": "[2]; [4]", "result": 41.5, "unit": "%"}, {"measurement": "Composition CH4", "setting": "[2]; 100000 ppm, single reactors", "result": 0, "unit": "%"}, {"measurement": "Composition CO2", "setting": "[2]; 100000 ppm, single reactors", "result": "70% and 47%"}, {"measurement": "Composition N2", "setting": "[2]; 100000 ppm, single reactors", "result": "30% and 53%"}, {"measurement": "Volume of CO2 generated", "setting": "[2]; 100000 ppm, single reactors", "result": "910 mL and 1663 mL"}, {"measurement": "colony types identified", "setting": "[3]; 10% level", "result": "only Cellulomonas cellulans was identified along with large masses of yeast cells"}, {"measurement": "bio-diversity of the mixed culture", "setting": "[3]; 1000-5000 ppm", "result": "increase the bio-diversity of the mixed culture"}, {"measurement": "number of predominant colony types", "setting": "[3]; 1000 ppm, control had two", "result": "eight"}, {"measurement": "growth of colonies in the mixed culture", "setting": "[3]; lower levels (≦5000 ppm)", "result": "facilitate growth of some of the more dormant colonies in the mixed culture"}]}
